From paper PMC6804243, “Small-Molecule Inhibition of UBE2T/FANCL-Mediated Ubiquitylation in the Fanconi Anemia Pathway” (ACS Chemical Biology, 2019)
“Also recorded” adds a separate entry of the source.

Tests used:
[1] = Tolerance / cytotoxicity of compounds in U2OS cells; assay type: cell-based; details: human, u2os cells, 8 h assay, read-out: concentration above which cytotoxic
Procedure: U2OS cells were treated with HU and the formation of mUb-FANCD2 in the presence of CU 1, CU2, and CU9 was evaluated relative to a DMSO control. Following a 1-h preincubation with the compounds, cells were treated with 2.5 mM of HU for 24 h. […] Accordingly, cells were treated with a higher concentration of compounds in further experiments.

[2] = test system: FANCD2 foci and γH2AX in U2OS cells; assay: High-throughput high content indirect immunofluorescence (FANCD2 foci, γH2AX); assay type: cell-based; details: for γH2AX positive cells / γH2AX levels: CU1 200 μM or CU2 500 μM in combination with HU (2.5 mM, 8 h) or cisplatin (10 μM, 8 h); for H2AX positive nuclei, Experiment 1 / H2AX positive nuclei, Experiment 2 / H2AX positive nuclei, Experiment 3: CU1 200 μM, raw data; for H2AX positive nuclei, Experiment 1 / H2AX positive nuclei, Experiment 2 / H2AX positive nuclei, Experiment 3 / H2AX positive nuclei, Totals: CU2 500 μM, HU 2.5 mM 8 h, cisplatin 10 μM 8 h; for number of FANCD2 foci per cell: 8 h, CU1 200 μM or CU2 500 μM; for H2AX positive nuclei, Totals: sum of experiments 1-3, CU1 200 μM
Procedure: In response to DNA damage, mUb-FANCD2 accumulates at sites of DNA lesions to form foci, promote DNA-damage sensing, activate cell-cycle checkpoints, and promote DNA repair.[23] Therefore, we employed high-throughput high-content indirect immunofluorescence studies to examine the effect of CU1 and CU2 on mUb-FANCD2 focus formation. The experimental format used was similar to the immunoblot-based experiments, excepting that, following treatment with HU (2.5 mM for 8 h) or cisplatin (10 μM for 8 h), cells were fixed, permeabilized and stained with specific FANCD2 primary and fluorescent secondary antibodies. In addition to monitoring mUb-FANCD2 foci, γH2AX was evaluated as a marker of DNA damage induction, and cell nuclei were visualized by 4′,6-diamidino-2-phenylindole (DAPI) staining. […] These observations are in accord with the immunoblot-based experiments wherein reductions in mUb-FANCD2 were observed (Figure 3a).
Figure 4 Further cell-based assays with CU1 and CU2: (a, b) Representative immunofluorescence images of U2OS cells treated with HU (2.5 mM, 8 h) or cisplatin (10 μM, 8 h) in the presence or absence of CU1 (200 μM) or CU2 (500 μM). (c) Quantification of the number of FANCD2 foci in cells treated as in panels (a) and (b). Data accumulated over three independent experiments, each consisting of three technical replicas. (d) IncuCyte analysis of U2OS cells treated with or without carboplatin (15 μM) and CU2 (250 μM). Mean calculated from three wells, four images per well. (HU = DMSO + HU, cisplatin = DMSO + cisplatin). […]
buffer (1 hour at room temperature) followed by three washes with PBST. Cells were then counterstained with DAPI (25 µg/mL) and mounted using Vectashield […]
High-throughput high content indirect immunofluorescence. U2OS cells, seeded in a 96-well plate, were treated with compound for 1 hour followed by 2.5 mM HU or 10 µM cisplatin for 8 hours. Cells were washed 3 times with wash buffer (1xPBS, 0.1% Tween-20) before being fixed in 2% paraformaldehyde (w/v) for 20 minutes at 23 °C. The cells were then washed a further 3 times in wash buffer before being stored overnight at 4°C in the final wash. Next day, the cells were permeabilized using 1xPBS, 0.5% Triton X-100 for 15 minutes at 23 °C and then washed 3 times with wash buffer before blocking with 5% BSA in 1xPBS, 0.1% Tween-20 for 30 minutes at 23 °C. After washing 3 times with wash buffer, the cells were incubated for 1 hour at 23 °C in the presence of primary antibodies (1:50 FANCD2, Santa Cruz, mouse monoclonal and 1:250 γH2AX, Cell Signalling, rabbit) in 5% BSA in wash buffer. After incubation in the presence of primary antibodies, the cells were washed 3 times with wash buffer before being incubated with secondary antibodies in 5% BSA in wash buffer for 1 hour in the dark at 23 °C. The secondary antibodies used were goat anti-mouse AlexaFluor 488 and goat anti-rabbit AlexaFluor 594 (both from Molecular Probes, Invitrogen). The cells were then washed a further 3 times with wash buffer before being stained in the presence of 2 µg/ml DAPI (Sigma D9542) in wash buffer for 10 minutes in the dark at 23 °C. After DAPI staining, the cells were washed 3 more times with wash buffer and stored in the final wash until ready for imaging.
A spinning-disk Opera PhenixTM (Perkin Elmer) microscope equipped with a 40x water immersion objective was employed to acquire 10 confocal images for each well in a single optimized focal plane comprising three fluorescence channels: 405, 488 and 568 nm for DAPI, Alexa Fluor 488 and Alexa Fluor 594, respectively. Image analysis and evaluation was done using Harmony High-Content Imaging and Analysis software. DAPI staining (405 nm) was used to segment nuclei, which were further gated for the presence of γH2AX staining

[3] = test system: UBE2T; assay: Binding to UBE2T by differential scanning fluorimetry, ligand-observed NMR, native mass spectrometry; details: native mass spectrometry (unpublished data)
[4] = in the presence of HU 2.5 mM, relative to HU alone
[5] = in the presence of cisplatin 10 μM, relative to cisplatin alone

Row | SMILES | MCC at 8 h [1] | γH2AX positive cells / γH2AX levels [2] | H2AX positive nuclei, Experiment 1 [2] | H2AX positive nuclei, Experiment 2 [2] | H2AX positive nuclei, Experiment 3 [2] | number of FANCD2 foci per cell [2, 4] | number of FANCD2 foci per cell [2, 5] | H2AX positive nuclei, Totals [2] | binding to UBE2T [3]
1 | NCCN1C(=O)CC[C@H]2CN(Cc3cccc(-c4ccco4)c3)CC[C@H]21 [CU1] | > 300 µM | no reduction in γH2AX positive cells; also recorded: do not significantly affect | 40 | 279 | 126 | clear reduction in the number of FANCD2 foci per cell | clear reduction in the number of FANCD2 foci per cell | 445 | 
2 | CCN1CCN(c2cc(C)nc3nc(CN4CCCCC4C)nn23)CC1 (stereo not shown) [CU2] |  | no reduction in γH2AX positive cells; also recorded: do not significantly affect | 56 | 303 | 79 | clear reduction in the number of FANCD2 foci per cell | clear reduction in the number of FANCD2 foci per cell | 438 | did not observe binding
